According to patent US20220023289A1, “Application Of Pyrroloquinoline Quinone In Preparation Of Medicament Used For Preventing And Treating Acute Altitude Sickness And Acute Altitude Hypoxia Injury” (priority 2018, published 2022):

Experiments:
[1] = tested on: rats exposed to acute altitude hypoxia; test: Blood glucose in rats exposed to acute altitude hypoxia (6000 m, 8 h, after 7 days intragastric); type: in vivo, Wistar rat; settings: for Blood sugar: 0.11 g/kg
Procedure: (§1) Select healthy Wistar rats weight 160-200 g, half female and half male. After feeding for 3 days, these Wistar rats are randomly divided into ten groups according to their body weight, each group has 16±2 rats. The groups are divided as follows: five groups of the hypoxic exposure drug test group, respectively, are given 0.91 mg/kg, 1.83 mg/kg, 3.66 mg/kg, 7.31 mg/kg, and 14.63 mg/kg drugs. […] After continuous intragastric administration for 7 days, the animals in the hypoxic exposure group are simultaneously put into the decompression and hypoxia compound experimental chamber, the hatch is closed, and the pressure is reduced at a speed of 10 m/s. After being raised to an altitude of 6000 m and maintained for 8 hours, the speed in 10 m/s drops is reduced to normal altitude, open the hatch, and then take out the animal, collect blood samples (after standing for 1 hour, the supernatant is centrifuged and stored at −20° C.), and liver tissue samples. Detection indicator includes body weight, serum blood glucose, ATP, lactic acid, endothelin, nitric oxide, SOD, CO, MDA related to oxidative stress, and total protein, albumin, triglycerides, total cholesterol, high-density lipoprotein cholesterol, low-density lipoprotein cholesterol, glutamic pyruvic transaminase, total bilirubin, gluamic oxalacetic transaminase, serum urea nitrogen, creatinine, uric acid, lactate dehydrogenase, creatine kinase, α-hydroxybutyrate dehydrogenase; liver ATP, hepatic glycogen. Except that the formal oxygen control animal group is not put into the decompression and hypoxia compound experimental chamber, other experimental conditions and detection indicators are the same.
(§2) Measure blood glucose, total protein, albumin, triglycerides, total cholesterol, high-density lipoprotein cholesterol, low-density lipoprotein cholesterol, glutamic-pyruvic transaminase, total bilirubin, glutamic oxalacetic transaminase, serum urea nitrogen, creatinine, uric acid, lactate dehydrogenase, creatine kinase, α-hydroxybutyrate dehydrogenase, blood homocysteine by using an automatic blood biochemical analyzer.

[2] = tested on: rats exposed to acute altitude hypoxia; test: Renal function in rats exposed to acute altitude hypoxia; type: in vivo, Wistar rat; settings: for Creatinine / Uric acid: 0.11 g/kg
Procedure: as §1, §2

[3] = tested on: rats with acute altitude hypoxia injury; test: Serum energy metabolism indexes (ATP, lactic acid) in rats with acute altitude hypoxia injury; type: in vivo, Wistar rat; settings: for serum Lactic acid: 0.11 g/kg
Procedure: Determination of adenosine triphosphate (ATP): Perform enzyme-linked immunosorbent assay by double-antibody one-step sandwich method. To the coated microwells pre-coated with rat adenosine triphosphate (ATP) capture antibody, add in sequence the specimens, standard, and HRP-labeled detection antibody, and then incubate and wash thoroughly. Use a substrate TMB for color development, TMB is converted into blue under the catalysis of peroxidase and converted into the final yellow color under the action of acid. The color intensity is positively correlated with the rat adenosine triphosphate (ATP) in the sample. […] Determination of lactic acid (LC): Perform enzyme-linked immunosorbent assay by double-antibody one-step sandwich method. To the coated microwells pre-coated with rat lactic acid (LC) capture antibody, add in sequence the specimens, standard, and HRP-labeled detection antibody, and then incubate and wash thoroughly. Use a substrate TMB for color development. TMB is converted into blue under the catalysis of peroxidase and converted into the final yellow color under the action of acid. The color intensity is positively correlated with the rat lactic acid (LC) in the sample.

[4] = Rat body weight before the acute decompression hypoxia experiment (intragastric 7 days)
Procedure: as §1

[5] = Mice weight before hypoxia tolerance test of simulated 10000 m altitude acute decompression; settings: 0.16 g/kg
[6] = seven days, repeat experiment in male mice

Structure (SMILES): CC(=O)Nc1nnc(S(N)(=O)=O)s1 [Acetazolamide, reference compound]
- effect on blood glucose ([1]; acute hypoxia exposed female rats): no significant effects
- Blood sugar ([1]; female rats, hypoxia): 7.63 ± 0.76 mmol/L
- effect on blood glucose ([1]; female rats, normoxia): lowering the blood glucose
- Blood sugar ([1]; female rats, normoxia): 7.18 ± 0.39 mmol/L
- effect on blood glucose level ([1]; male rats): no significant effects
- Blood sugar ([1]; male rats, hypoxia): 8.87 ± 1.24 mmol/L
- Creatinine ([2]; female rats, hypoxia): 18.78 ± 1.96 µmol/L
- Uric acid ([2]; female rats, hypoxia): 77.80 ± 17.31 µmol/L
- effect on serum urea nitrogen and creatinine values ([2]; female rats, normoxia): increasing
- effect on serum uric acid level ([2]; female rats, normoxia): reducing
- Creatinine ([2]; female rats, normoxia): 19.67 ± 0.32 µmol/L
- Uric acid ([2]; female rats, normoxia): 82.00 ± 15.10 µmol/L
- effect on serum urea nitrogen and creatinine value ([2]; hypoxia exposed female rats): increasing
- effect on serum uric acid level ([2]; hypoxia exposed female rats): decreasing
- effect on serum creatinine ([2]; hypoxia exposed male rats): no significant effect
- effect on serum urea nitrogen content ([2]; hypoxia exposed male rats): increase
- effect on serum uric acid level ([2]; hypoxia exposed male rats): can reduce
- Creatinine ([2]; male rats, hypoxia): 25.01 ± 2.48 µmol/L
- Uric acid ([2]; male rats, hypoxia): 81.86 ± 11.05 µmol/L
- serum Lactic acid ([3]; female rats, hypoxia): 132.16 ± 10.42 ng/L
- effect on serum ATP and lactic acid content ([3]; female rats, last sentence of b195 (normoxia per Table 37)): reducing
- serum Lactic acid ([3]; female rats, normoxia): 100.54 ± 7.13 ng/L
- effect on serum ATP and lactic acid content ([3]; hypoxia exposed female rats): no significant effects
- effect on serum ATP ([3]; male rats): no significant effects
- effect on serum lactic acid content ([3]; male rats): reducing
- serum Lactic acid ([3]; male rats, hypoxia): 161.46 ± 6.94 ng/L
- rat body weight Female 1 day ([4]; 0.11 g/kg): 153.4 ± 6.1 g
- rat body weight Female 7 days ([4]; 0.11 g/kg): 163.3 ± 6.76 g
- rat body weight Male 1 day ([4]; 0.11 g/kg): 172.4 ± 6.8 g
- rat body weight Male 7 days ([4]; 0.11 g/kg): 189.1 ± 11.8 g
- effect on body weight ([4]; female rats, 7 days): no significant effects
- effect on weight ([4]; male rats, 7 days): decreased
- Mice weight Female 1 day ([5]; administration for 14 days): 15.24 ± 0.89 g
- Mice weight Female 7 days ([5]; administration for 14 days): 19.35 ± 3.12 g
- Mice weight Male 1 day ([5]; administration for 14 days): 14.66 ± 1.52 g
- Mice weight Male 7 days ([5]; administration for 14 days): 16.29 ± 3.25 g
- Mice weight Male 14 days ([5]; administration for 14 days): 21.16 ± 3.61 g
- Mice weight Female ([5]; administration for three days): 17.80 ± 0.94 g
- Mice weight Male ([5]; administration for three days): 18.29 ± 0.85 g
- Mice weight Male 1 day [5, 6]: 19.53 ± 0.93 g
- Mice weight Male 7 days [5, 6]: 21.35 ± 2.47 g
- Mice weight Female ([5]; single dose test): 17.31 ± 1.22 g
- Mice weight Male ([5]; single dose test): 19.47 ± 0.57 g
